We go through 45 compounds from US10183949B2, “Pyrimidinone derivative having autotaxin-inhibitory activity” (The University of Tokyo, priority 2014, dated 2019).

The target in this experiment is T1, Human autotaxin enzyme (Homo sapiens, UniProt Q13822).
T1 construct: purchased R&D System
Put plainly: Evaluation of autotaxin inhibitor, 18:0 Lyso PC / choline assay (Test Example 2). To be noted: human autotaxin enzyme, 18:0 Lyso PC substrate, choline assay, room temperature 2 hours; read-out: Inhibitor activity (IC50). The format is biochemical. A digest of the protocol: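 Inhibition derived from concentration-dependent curves, scaled between no-compound (0%) and no-enzyme (100%) wells. Choline generated from 18:0 Lyso PC (200 μM stock) by human enzyme over 2 h at room temperature (Tris-HCl pH 7.5, NaCl, MgCl2, Triton X-100) read as resorufin fluorescence, 531/598 nm, after choline oxidase-peroxidase coupling.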
`Cc1nc(-c2ccc(Cl)cc2NC(=O)C2CC2)cc(=O)n1CC(=O)NCC1CNC(=O)O1` (stereo not drawn) [Compound I-0456]: the concentration for half-maximal inhibition (IC50) lay within 10 to 100 nM.

`COC(=O)Nc1cc(Cl)ccc1-c1cc(=O)n(CC(=O)NC(C)(C)C(F)(F)F)c(C)n1` [Compound I-0457]: the half-maximal inhibitory concentration (IC50) is less than 10 nM. The value for `COC(=O)Nc1cc(Cl)ccc1-c1cc(=O)n(CC(=O)N2CCC(C(N)=O)CC2)c(C)n1` [Compound I-0458] was less than 10 nM.

On to `COC(=O)Nc1cc(Cl)ccc1-c1cc(=O)n(CC(=O)N2CCN(C(N)=O)CC2)c(C)n1` [Compound I-0459], for which the IC50 lay within 10 to 100 nM. The value for `O=C(Cn1cnc(-c2ccc(Cl)cc2)cc1=O)NCCCNC(=O)c1ccc2[nH]nnc2c1` [Compound I-0460] was not below 1000 nM. Consider `Cc1nc(-c2ccc(Cl)cc2NC(=O)C2CC2)cc(=O)n1CC(=O)NC1(C(F)(F)F)CC1` [Compound I-0461], for which the IC50 fell in the range of 10 to 100 nM. Consider `Cc1nc(-c2ccc(Cl)cc2NC(=O)C2CC2)cc(=O)n1CC(=O)NC(C)(C)C(F)(F)F` [Compound I-0462], for which the IC50 lay in the range of 10 to 100 nM. The value for `Cc1nc(-c2ccc(Cl)cc2NC(=O)C2CC2)cc(=O)n1CC(=O)N1CCC(C(N)=O)CC1` [Compound I-0463] was 10 to 100 nM; that for `COC(=O)Nc1cc(Cl)ccc1-c1cc(=O)n(CC(=O)NCCNS(C)(=O)=O)c(C)n1` [Compound I-0464] was 10 to 100 nM.

On to `CNS(=O)(=O)CCNC(=O)Cn1c(C)nc(-c2ccc(Cl)cc2NC(=O)OC)cc1=O` [Compound I-0465], for which the IC50 was less than 10 nM.

Consider `COC(=O)Nc1cc(Cl)ccc1-c1cc(=O)n(CC(=O)NC2(c3nc(C)no3)CC2)c(C)n1` [Compound I-0467], for which the IC50 was in the range of 10 to 100 nM. With `CC(C)(C)C(=O)Nc1cc(Cl)ccc1-c1cc(=O)n(CC(=O)N2CCC(C(N)=O)CC2)cn1` [Compound I-0468], the IC50 fell in the range of 10 to 100 nM. As to `CC(C)(C)C(=O)Nc1cc(Cl)ccc1-c1cc(=O)n(CC(=O)NCC2CCC(=O)NC2)cn1` (stereo not drawn) [Compound I-0469], the IC50 fell in the range of 100 to 1000 nM.

In the case of `COC(=O)Nc1cc(Cl)ccc1-c1cc(=O)n(CC(=O)NC2(c3nc(=O)o[nH]3)CC2)c(C)n1` [Compound I-0470], the IC50 was less than 10 nM. For `COC(=O)Nc1cc(Cl)ccc1-c1cc(=O)n(CC(=O)N2CCC(C(=N)NO)CC2)c(C)n1` [Compound I-0471], the IC50 was in the range of 10 to 100 nM.

In the case of `O=C(Cn1cnc(-c2ccc(Cl)cc2)cc1=O)NCCCCNC(=O)c1ccc2nn[nH]c2c1` [Compound I-0472], the IC50 is not below 1000 nM. `Cc1nc(-c2ccc(Cl)cc2NC(=O)C2CC2)cc(=O)n1CC(=O)NCCNS(C)(=O)=O` [Compound I-0473]: the IC50 was 10 to 100 nM.

For `CNS(=O)(=O)CCNC(=O)Cn1c(C)nc(-c2ccc(Cl)cc2NC(=O)C2CC2)cc1=O` [Compound I-0474], the IC50 is 10 to 100 nM. As for `Cc1noc(C2(NC(=O)Cn3c(C)nc(-c4ccc(Cl)cc4NC(=O)C4CC4)cc3=O)CC2)n1` [Compound I-0475], the figure is 10 to 100 nM; as for `O=C(Cn1cnc(-c2ccc(Cl)cc2)cc1=O)NCCCCCNC(=O)c1ccc2[nH]nnc2c1` [Compound I-0476], not below 1000 nM; as for `CC(C)(C)NC(=O)c1cccc(Cn2cnc(-c3ccc(Cl)cc3NC(=O)C(C)(C)C)cc2=O)c1` [Compound I-0477], 100 to 1000 nM. As for `CC(C)(C)C(=O)Nc1cc(Cl)ccc1-c1cc(=O)n(Cc2cccc(C(=O)NCC(N)=O)c2)cn1` [Compound I-0478], the figure is 100 to 1000 nM; as for `CNC(=O)NC1CCN(C(=O)Cn2c(C)nc(-c3ccc(Cl)cc3NC(=O)C3CC3)cc2=O)CC1` [Compound I-0479], 10 to 100 nM. As for `COC(=O)Nc1cc(Cl)ccc1-c1cc(=O)n(CC(=O)NC2(c3ccc(F)cc3)COC2)c(C)n1` [Compound I-0480], the figure is 10 to 100 nM; as for `COC(=O)Nc1cc(Cl)ccc1-c1cc(=O)n(CC(=O)N2CCN(CC(F)(F)F)CC2)c(C)n1` [Compound I-0481], 10 to 100 nM; as for `COC(=O)Nc1cc(Cl)ccc1-c1cc(=O)n(CC(=O)N2CCC(c3nc(=O)o[nH]3)CC2)c(C)n1` [Compound I-0482], less than 10 nM.

On to `O=C(Cn1cnc(-c2ccc(Cl)cc2)cc1=O)NCCCCCCNC(=O)c1ccc2nn[nH]c2c1` [Compound I-0483], for which the IC50 was in the range of 100 to 1000 nM.

Take `Cc1nc(-c2ccc(Cl)cc2NC(=O)C2CC2)cc(=O)n1CC(=O)NC1(c2ccc(F)cc2)COC1` [Compound I-0484]: the IC50 was in the range of 10 to 100 nM.

On to `Cc1nc(-c2ccc(Cl)cc2NC(=O)C2CC2)cc(=O)n1CC(=O)N1CCN(CC(F)(F)F)CC1` [Compound I-0485], for which the IC50 lay within 10 to 100 nM.

As for `CC(C)(C)C(=O)Nc1cc(Cl)ccc1-c1cc(=O)n(Cc2cccc(C(=O)NC(CO)CO)c2)cn1` [Compound I-0486], the IC50 was in the range of 100 to 1000 nM.

On to `CCNC(=O)N1CCC(NC(=O)Cn2cnc(-c3ccc(Cl)cc3NC(=O)C(C)(C)C)cc2=O)CC1` [Compound I-0487], for which the IC50 was in the range of 100 to 1000 nM.

Consider `CC(C)(C)C(=O)Nc1cc(Cl)ccc1-c1cc(=O)n(Cc2cccc(C(=O)NCc3c[nH]nn3)c2)cn1` [Compound I-0488], for which the IC50 fell in the range of 100 to 1000 nM.

`CC(C)(C)C(=O)Nc1cc(Cl)ccc1-c1cc(=O)n(Cc2cccc(C(=O)N3CCC(O)CC3)c2)cn1` [Compound I-0489]: the IC50 lay within 10 to 100 nM.

Regarding `CCS(=O)(=O)N1CCN(C(=O)Cn2cnc(-c3ccc(Cl)cc3NC(=O)C(C)(C)C)cc2=O)CC1` [Compound I-0490], the IC50 was in the range of 100 to 1000 nM. As for `CC(C)(C)C(=O)Nc1cc(Cl)ccc1-c1cc(=O)n(Cc2cccc(C(=O)Nc3cnccc3O)c2)cn1` [Compound I-0491], the figure is 100 to 1000 nM; as for `CC(C)(C)C(=O)Nc1cc(Cl)ccc1-c1cc(=O)n(Cc2cccc(C(=O)Nc3cccnc3O)c2)cn1` [Compound I-0492], 10 to 100 nM.

Take `CC(C)(C)C(=O)Nc1cc(Cl)ccc1-c1cc(=O)n(Cc2cccc(C(=O)Nc3ccnc(O)c3)c2)cn1` [Compound I-0493]: the IC50 is not below 1000 nM.

As to `COC(=O)Nc1cc(Cl)ccc1-c1cc(=O)n(CC(=O)N2CCC(CC(=O)OC(C)(C)C)CC2)c(C)n1` [Compound I-0494], the IC50 is less than 10 nM. As for `CC(C)(C)C(=O)Nc1cc(Cl)ccc1-c1cc(=O)n(Cc2cccc(C(=O)N3CCC4(COC4)C3)c2)cn1` [Compound I-0495], the IC50 lay in the range of 10 to 100 nM. As for `Cc1nc(-c2ccc(Cl)cc2NC(=O)C2CC2)cc(=O)n1CC(=O)N1CCC(CC(=O)OC(C)(C)C)CC1` [Compound I-0496], the figure is 10 to 100 nM; as for `CC(C)(C)C(=O)Nc1cc(Cl)ccc1-c1cc(=O)n(Cc2cccc(C(=O)N3CCC(C(N)=O)CC3)c2)cn1` [Compound I-0497], 10 to 100 nM; as for `CC(C)(C)C(=O)Nc1cc(Cl)ccc1-c1cc(=O)n(Cc2cccc(C(=O)NCC3CCC(=O)NC3)c2)cn1` (stereo not drawn) [Compound I-0498], 100 to 1000 nM. As for `CC(=O)Nc1cc(Cl)ccc1-c1cc(=O)n(CC(=O)N2CCN(CCC(=O)c3ccc4[nH]c(=O)oc4c3)CC2)cn1` [Compound I-0499], the figure is 100 to 1000 nM; as for `CCNC(=O)N1CCC(NC(=O)c2cccc(Cn3cnc(-c4ccc(Cl)cc4NC(=O)C(C)(C)C)cc3=O)c2)CC1` [Compound I-0500], 10 to 100 nM. Turning to `CCS(=O)(=O)N1CCN(C(=O)c2cccc(Cn3cnc(-c4ccc(Cl)cc4NC(=O)C(C)(C)C)cc3=O)c2)CC1` [Compound I-0501], the IC50 was in the range of 10 to 100 nM.

The term IC50 denotes the concentration that inhibits the measured activity by half.
